Experimental data as given in patent publication US3943131A, “Trifluoromethylmercaptoacetamidocephalosporins” (SmithKline Corporation, priority 1974, dated 1976).
Converted amounts (≈) assume the structure as drawn. Where two headings read alike, the source gives them in different places.

Experiments:
Assay type in all cases: cell-based
Entero. aerogenes = experiment: MIC in vitro, Entero. aerogenes; conditions: Klebsiella aerogenes
Pseudomonas sp. HH 63 = experiment: MIC in vitro, Pseudomonas sp. HH 63; conditions: SP.HH63
S. aureus HH 127 = experiment: MIC in vitro, S. aureus HH 127; conditions: Staphylococcus aureus, HH127
E. coli. HH 33779 = experiment: MIC in vitro, E. coli HH 33779; conditions: Escherichia coli
Strep. faecalis HH 34358 = experiment: MIC in vitro, Strep. faecalis HH 34358; conditions: Enterococcus faecalis, HH34358
K. pneumo. SK 4200 = experiment: MIC in vitro, K. pneumo. SK 4200
Strep. pyog. C 203 = experiment: MIC in vitro, Strep. pyog. C 203
[1] = E. coli. HH 33779, read-out: MIC

| Compound | MIC (Entero. aerogenes) | MIC (Pseudomonas sp. HH 63) | MIC (S. aureus HH 127) | MIC (E. coli. HH 33779; [1]) | MIC (Strep. faecalis HH 34358) | MIC (K. pneumo. SK 4200) | MIC (Strep. pyog. C 203) | MIC (E. coli. HH 33779) |
| --- | --- | --- | --- | --- | --- | --- | --- | --- |
| CC(=O)OCC1=C(C(=O)O)N2C(=O)C(NC(=O)CSC(F)(F)F)C2SC1 (stereo not drawn) [I, 7-trifluoromethylmercaptoacetamidocephalosporanic acid] | 50 µg/mL (≈ 121 µM) | < 200 µg/mL | 0.4 µg/mL (≈ 0.965 µM) | 6.3 µg/mL (≈ 15.2 µM) | 25 µg/mL (≈ 60.3 µM) | 0.8 µg/mL (≈ 1.93 µM) | 0.1 µg/mL (≈ 0.241 µM) |  |
| Cn1nnnc1SCC1=C(C(=O)O)N2C(=O)C(NC(=O)CSC(F)(F)F)[C@H]2SC1 (stereo partly drawn) [II, 7-Trifluoromethylmercaptoacetamido-3-(1-methyl-tetrazol-5-ylthiomethyl)-3-cephem-4-carboxylic acid] | 1.6 µg/mL (≈ 3.4 µM) | < 200 µg/mL | 0.4 µg/mL (≈ 0.85 µM) | 1.6 µg/mL (≈ 3.4 µM) | 25 µg/mL (≈ 53.1 µM) | 0.8 µg/mL (≈ 1.7 µM) | 0.1 µg/mL (≈ 0.213 µM) |  |
| Cc1nnc(SCC2=C(C(=O)O)N3C(=O)C(NC(=O)CSC(F)(F)F)[C@H]3SC2)s1 (stereo partly drawn) [III, 7-trifluoromethylmercaptoacetamido-3-(5-methyl-1,3,4-thiadiazol-2-ylthiomethyl)-3-cephem-4-carboxylic acid] | 6.3 µg/mL (≈ 12.9 µM) | < 200 µg/mL | 0.4 µg/mL (≈ 0.822 µM) |  | 12.5 µg/mL (≈ 25.7 µM) | 1.6 µg/mL (≈ 3.29 µM) | 0.1 µg/mL (≈ 0.206 µM) | 3.1 µg/mL (≈ 6.37 µM) |
